# Data as given in patent publication US20040062807A1, “Biocide compositions and a method for their production” (priority 2001, published 2004).
# What was measured:
# unidentified mold = test: Growth of mold on petri dishes with fungicide composition in growth media (diameter); type: cell-based; details: 25° C., 3-5 days
# Description: The fungus was allowed to grow at 25° C. for 3-5 days. At the end of this period, the diameter of the fungus on the plate was measured. All results were duplicated to assure accuracy.
# fungus spores = test: Fungus spore germination in growth media with fungicide composition (colony count); type: cell-based, unidentified mold; details: 3-5 days incubation
# Description: The fungus was allowed to grow at 25° C. for 3-5 days. At the end of this period, the diameter of the fungus on the plate was measured. All results were duplicated to assure accuracy. In a second series of experiments, the growth of fungus spores was measured under the same conditions as those described above. The number of colonies were measured, again after 3-5 days of incubation.
# [1] = 15% composition in growth media
# [2] = 25% composition in growth media
smiles,measurement,setting,value
O=C([O-])[O-].[Ca+2] [Calcium carbonate],Growth of Fungus (CFU diameter),unidentified mold; 5% composition in growth media,9 cm
same,Growth of Fungus (CFU diameter),unidentified mold; [1],9 cm
same,Growth of Fungus (CFU diameter),unidentified mold; [2],9 cm
same,Fungus Germination (CFU per ml),fungus spores; 5% composition in growth media,100 CFU per ml
same,Fungus Germination (CFU per ml),fungus spores; [1],150 CFU per ml
same,Fungus Germination (CFU per ml),fungus spores; [2],110 CFU per ml
